{
  "source": "paper PMC5218480",
  "about": "(PLoS ONE, 2017)",
  "test_system": "MV-4-11 cells",
  "assay": "Gene expression microarray analysis (Affymetrix PrimeView) and GSEA",
  "format": "cell-based, human",
  "parameters": "RFU PODN (11730768_x_at) / Fold change /veh PODN (11730768_x_at) / RFU LINC00158 (11744669_a_at) / Fold change /veh LINC00158 (11744669_a_at) / RFU DUSP10 (11751237_a_at) / Fold change /veh DUSP10 (11751237_a_at) / RFU ID3 (11757404_x_at) / Fold change /veh ID3 (11757404_x_at) / RFU PLEKHG5 (11737974_s_at) / Fold change /veh PLEKHG5 (11737974_s_at) / RFU LRRC4B (11730491_at) / Fold change /veh LRRC4B (11730491_at) / RFU GIMAP4 (11747438_a_at) / Fold change /veh GIMAP4 (11747438_a_at) / RFU KRT8 (11758183_x_at) / Fold change /veh KRT8 (11758183_x_at) / RFU CNN1 (11734310_a_at) / Fold change /veh CNN1 (11734310_a_at) / RFU VPS37D (11726825_at) / Fold change /veh VPS37D (11726825_at) / RFU C10orf10 (11716522_x_at) / Fold change /veh C10orf10 (11716522_x_at) / RFU KIR2DL2 /// KIR2DL4 /// KIR2DL5A /// KIR2DL5B /// KIR2DS1 /// KIR2DS2 /// KIR2DS3 /// KIR2DS4 /// KIR3DL3 /// KIR3DL3 /// KIR3DS1 (11738374_at) / Fold change /veh KIR2DL2 /// KIR2DL4 /// KIR2DL5A /// KIR2DL5B /// KIR2DS1 /// KIR2DS2 /// KIR2DS3 /// KIR2DS4 /// KIR3DL3 /// KIR3DL3 /// KIR3DS1 (11738374_at) / RFU C1QL1 (11718748_at) / Fold change /veh C1QL1 (11718748_at) / RFU TMPRSS4 (11747572_a_at) / Fold change /veh TMPRSS4 (11747572_a_at) / RFU HAMP (11756126_x_at) / Fold change /veh HAMP (11756126_x_at) / RFU RNFT2 (11725882_a_at) / Fold change /veh RNFT2 (11725882_a_at) / RFU NR4A2 (11747474_a_at) / Fold change /veh NR4A2 (11747474_a_at) / RFU ABCC12 (11746883_a_at) / Fold change /veh ABCC12 (11746883_a_at) / RFU TMEM136 (11760407_x_at) / Fold change /veh TMEM136 (11760407_x_at) / RFU CLDN22 /// WWC2 (11732394_at) / Fold change /veh CLDN22 /// WWC2 (11732394_at) / RFU HLA-DPB1 (11760878_x_at) / Fold change /veh HLA-DPB1 (11760878_x_at) / RFU SPINT1 (11716480_a_at) / Fold change /veh SPINT1 (11716480_a_at) / RFU GAP43 (11754022_s_at) / Fold change /veh GAP43 (11754022_s_at) / RFU A4GNT (11735810_at) / Fold change /veh A4GNT (11735810_at) / RFU PRB3 (11715151_x_at) / Fold change /veh PRB3 (11715151_x_at) / RFU TUBB4B (11761932_at) / Fold change /veh TUBB4B (11761932_at) / RFU CAPN14 (11732068_a_at) / Fold change /veh CAPN14 (11732068_a_at) / RFU TMCC2 (11721928_a_at) / Fold change /veh TMCC2 (11721928_a_at) / RFU IRGQ (11745062_a_at) / Fold change /veh IRGQ (11745062_a_at) / RFU FAM174B (11720279_a_at) / Fold change /veh FAM174B (11720279_a_at) / RFU TMPRSS4 (11748680_a_at) / Fold change /veh TMPRSS4 (11748680_a_at) / RFU FAM212B (11763350_a_at) / Fold change /veh FAM212B (11763350_a_at) / RFU PLEKHG5 (11743358_a_at) / Fold change /veh PLEKHG5 (11743358_a_at) / RFU ZSCAN30 (11745921_a_at) / Fold change /veh ZSCAN30 (11745921_a_at) / RFU CMKLR1 (11741424_a_at) / Fold change /veh CMKLR1 (11741424_a_at) / RFU LOC101060620 /// MAPK8IP1 (11723275_at) / Fold change /veh LOC101060620 /// MAPK8IP1 (11723275_at) / RFU SPTSSB (11747773_x_at) / Fold change /veh SPTSSB (11747773_x_at) / RFU PRSS12 (11739890_at) / Fold change /veh PRSS12 (11739890_at) / RFU BIN1 (11741810_x_at) / Fold change /veh BIN1 (11741810_x_at) / RFU WNT11 (11732464_a_at) / Fold change /veh WNT11 (11732464_a_at) / RFU C10orf10 (11716521_a_at) / Fold change /veh C10orf10 (11716521_a_at) / RFU C5orf56 (11738089_at) / Fold change /veh C5orf56 (11738089_at) / RFU CYB561 (11721691_x_at) / Fold change /veh CYB561 (11721691_x_at) / RFU ANKRD19P (11752326_a_at) / Fold change /veh ANKRD19P (11752326_a_at) / RFU OR2T12 /// OR2T33 /// OR2T8 (11738714_s_at) / Fold change /veh OR2T12 /// OR2T33 /// OR2T8 (11738714_s_at) / RFU VCAN (11748164_a_at) / Fold change /veh VCAN (11748164_a_at) / RFU JSRP1 (11732532_at) / Fold change /veh JSRP1 (11732532_at) / RFU KRTAP10-11 (11738290_x_at) / Fold change /veh KRTAP10-11 (11738290_x_at) / RFU MYO3A (11730013_a_at) / Fold change /veh MYO3A (11730013_a_at) / RFU EBF3 (11725865_a_at) / Fold change /veh EBF3 (11725865_a_at) / RFU CAMK2N1 (11719241_x_at) / Fold change /veh CAMK2N1 (11719241_x_at) / RFU C5orf56 (11738088_a_at) / Fold change /veh C5orf56 (11738088_a_at) / RFU OLFML3 (11715873_a_at) / Fold change /veh OLFML3 (11715873_a_at) / RFU LOC100653217 /// NTM (11731650_a_at) / Fold change /veh LOC100653217 /// NTM (11731650_a_at) / RFU MAPK11 (11762145_a_at) / Fold change /veh MAPK11 (11762145_a_at) / RFU FIZ1 (11724087_x_at) / Fold change /veh FIZ1 (11724087_x_at) / RFU OASL (11726364_x_at) / Fold change /veh OASL (11726364_x_at) / RFU SOX15 (11748057_x_at) / Fold change /veh SOX15 (11748057_x_at) / RFU CD79A (11719716_a_at) / Fold change /veh CD79A (11719716_a_at) / RFU HIST1H1D (11736915_at) / Fold change /veh HIST1H1D (11736915_at) / RFU CASKIN2 (11723855_a_at) / Fold change /veh CASKIN2 (11723855_a_at) / RFU LOC730098 (11760151_x_at) / Fold change /veh LOC730098 (11760151_x_at) / RFU OR4N2 (11742367_at) / Fold change /veh OR4N2 (11742367_at) / RFU PRRT2 (11749266_a_at) / Fold change /veh PRRT2 (11749266_a_at) / RFU SNX32 (11753110_a_at) / Fold change /veh SNX32 (11753110_a_at) / RFU CDHR5 (11726645_a_at) / Fold change /veh CDHR5 (11726645_a_at) / RFU RCAN1 (11760418_a_at) / Fold change /veh RCAN1 (11760418_a_at) / RFU FAM167A (11723789_a_at) / Fold change /veh FAM167A (11723789_a_at) / RFU FAM26E (11764081_at) / Fold change /veh FAM26E (11764081_at) / RFU ISYNA1 (11749810_s_at) / Fold change /veh ISYNA1 (11749810_s_at) / RFU ACY1 (11761880_at) / Fold change /veh ACY1 (11761880_at) / RFU 11764098_at / Fold change /veh 11764098_at / RFU SAMD14 (11745864_x_at) / Fold change /veh SAMD14 (11745864_x_at) / RFU NPB (11741838_a_at) / Fold change /veh NPB (11741838_a_at) / RFU TMPRSS6 (11731388_a_at) / Fold change /veh TMPRSS6 (11731388_a_at) / RFU KRTAP10-2 (11738614_at) / Fold change /veh KRTAP10-2 (11738614_at) / RFU ARHGAP8 /// PRR5-ARHGAP8 (11727945_x_at) / Fold change /veh ARHGAP8 /// PRR5-ARHGAP8 (11727945_x_at) / RFU KRTAP5-7 /// NADSYN1 (11734609_at) / Fold change /veh KRTAP5-7 /// NADSYN1 (11734609_at) / RFU RASL12 (11751679_a_at) / Fold change /veh RASL12 (11751679_a_at) / RFU CDKN2B (11736163_a_at) / Fold change /veh CDKN2B (11736163_a_at) / RFU PRF1 (11729649_at) / Fold change /veh PRF1 (11729649_at) / RFU, ZNF638 /// ZNF638-IT1 / Fold change vs veh, ZNF638 /// ZNF638-IT1 / RFU, PANK3 / Fold change vs veh, PANK3 / RFU, SH3YL1 / Fold change vs veh, SH3YL1 / RFU, ZEB2 / Fold change vs veh, ZEB2 / RFU, NRIP1 / Fold change vs veh, NRIP1 / RFU, PTTG1IP / Fold change vs veh, PTTG1IP / RFU, CAPN2 / Fold change vs veh, CAPN2 / RFU, MED14 / Fold change vs veh, MED14 / RFU, SNORA58 / Fold change vs veh, SNORA58 / RFU, C1orf63 / Fold change vs veh, C1orf63 / RFU, LRRFIP1 / Fold change vs veh, LRRFIP1 / RFU, NDUFAF7 / Fold change vs veh, NDUFAF7 / RFU, SLC12A2 / Fold change vs veh, SLC12A2 / RFU, IBTK / Fold change vs veh, IBTK / RFU, ESF1 / Fold change vs veh, ESF1 / Fold change vs veh, TMEM50B / RFU, TAOK1 / Fold change vs veh, TAOK1 / RFU, ACBD3 / Fold change vs veh, ACBD3 / RFU, TMA16 / Fold change vs veh, TMA16 / RFU, RWDD3 / Fold change vs veh, RWDD3 / RFU, BCAT1 / Fold change vs veh, BCAT1 / RFU, EDEM3 / Fold change vs veh, EDEM3 / RFU, TMEM33 / Fold change vs veh, TMEM33 / RFU, WDR75 / Fold change vs veh, WDR75 / RFU, AHCTF1 / Fold change vs veh, AHCTF1 / RFU, TFRC / Fold change vs veh, TFRC / RFU, ZDHHC17 / Fold change vs veh, ZDHHC17 / RFU, NOM1 / Fold change vs veh, NOM1 / RFU, ARL8B / Fold change vs veh, ARL8B / RFU, ZBTB11 / Fold change vs veh, ZBTB11 / RFU, TAMM41 / Fold change vs veh, TAMM41 / RFU, KIAA1704 /// LOC100996395 / Fold change vs veh, KIAA1704 /// LOC100996395 / RFU, ING1 / Fold change vs veh, ING1 / RFU, TRMT61B / Fold change vs veh, TRMT61B / RFU, FUBP3 / Fold change vs veh, FUBP3 / RFU, TP53 / Fold change vs veh, TP53 / RFU, TNKS2 / Fold change vs veh, TNKS2 / RFU, ZFP14 / Fold change vs veh, ZFP14 / RFU, ACTR2 / Fold change vs veh, ACTR2 / RFU, PPP3R1 / Fold change vs veh, PPP3R1 / RFU, PIK3R1 / Fold change vs veh, PIK3R1 / RFU, HNRNPA1 / Fold change vs veh, HNRNPA1 / RFU, RNF170 / Fold change vs veh, RNF170 / RFU, ZNF28 / Fold change vs veh, ZNF28 / RFU, RNGTT / Fold change vs veh, RNGTT / RFU, OGT / Fold change vs veh, OGT / RFU, BRD1 / Fold change vs veh, BRD1 / RFU, MARS / Fold change vs veh, MARS / RFU, ZNF655 / Fold change vs veh, ZNF655 / RFU, FAHD1 / Fold change vs veh, FAHD1 / RFU, BDP1 / Fold change vs veh, BDP1 / RFU, LRRCC1 / Fold change vs veh, LRRCC1 / RFU, ARID1A / Fold change vs veh, ARID1A / RFU, ZNF146 / Fold change vs veh, ZNF146 / RFU, ZNF330 / Fold change vs veh, ZNF330 / RFU, GPN3 / Fold change vs veh, GPN3 / RFU, C9orf123 / Fold change vs veh, C9orf123 / RFU, N4BP2L2 / Fold change vs veh, N4BP2L2 / RFU, ARFIP1 / Fold change vs veh, ARFIP1 / RFU, FAM179B / Fold change vs veh, FAM179B / RFU, BCL10 / Fold change vs veh, BCL10 / RFU, UHRF1BP1L / Fold change vs veh, UHRF1BP1L / RFU, BET1 / Fold change vs veh, BET1 / RFU, CNOT2 / Fold change vs veh, CNOT2 / RFU, ZNF268 / Fold change vs veh, ZNF268 / Fold change vs veh, ZNF507 / RFU, DGCR2 / Fold change vs veh, DGCR2 / RFU, WDSUB1 / Fold change vs veh, WDSUB1 / Fold change vs veh, HSP90B1 /// MIR3652 / RFU, ADSS / Fold change vs veh, ADSS / RFU, GK / Fold change vs veh, GK / RFU, ZNF148 / Fold change vs veh, ZNF148 / RFU, TAF9 / Fold change vs veh, TAF9 / RFU, SLC1A5 / Fold change vs veh, SLC1A5 / RFU, SLMO2 / Fold change vs veh, SLMO2 / RFU, ABCC4 / Fold change vs veh, ABCC4 / RFU, LOC101060439 /// RAP1B / Fold change vs veh, LOC101060439 /// RAP1B / RFU, RFX7 / Fold change vs veh, RFX7 / RFU, GTPBP10 / Fold change vs veh, GTPBP10 / RFU, CNEP1R1 / Fold change vs veh, CNEP1R1 / RFU, BIVM-ERCC5 /// ERCC5 / Fold change vs veh, BIVM-ERCC5 /// ERCC5 / RFU, ILF3 / Fold change vs veh, ILF3 / RFU 11762660_at / Fold change /veh 11762660_at / RFU VCAN (11757783_s_at) / Fold change /veh VCAN (11757783_s_at) / RFU DDX43 (11728927_at) / Fold change /veh DDX43 (11728927_at) / RFU KRT8 (11758188_x_at) / Fold change /veh KRT8 (11758188_x_at) / RFU NKD1 (11759106_at) / Fold change /veh NKD1 (11759106_at) / RFU SRD5A1 (11742802_a_at) / Fold change /veh SRD5A1 (11742802_a_at) / RFU TPSAB1 /// TPSB2 (11721975_s_at) / Fold change /veh TPSAB1 /// TPSB2 (11721975_s_at) / RFU GSTM3 (11746129_a_at) / Fold change /veh GSTM3 (11746129_a_at) / RFU IL23R (11737362_x_at) / Fold change /veh IL23R (11737362_x_at) / RFU TMEM51 (11727254_a_at) / Fold change /veh TMEM51 (11727254_a_at) / RFU PIWIL2 (11732686_x_at) / Fold change /veh PIWIL2 (11732686_x_at) / RFU ORM1 (11744905_x_at) / Fold change /veh ORM1 (11744905_x_at) / RFU CCDC152 (11743942_at) / Fold change /veh CCDC152 (11743942_at) / RFU ECM1 (11717891_a_at) / Fold change /veh ECM1 (11717891_a_at) / RFU IL23R (11748794_a_at) / Fold change /veh IL23R (11748794_a_at) / RFU TNFAIP8L3 (11732012_x_at) / Fold change /veh TNFAIP8L3 (11732012_x_at) / RFU MBOAT4 (11741988_at) / Fold change /veh MBOAT4 (11741988_at) / RFU 11764193_at / Fold change /veh 11764193_at / RFU TMEM53 (11763286_at) / Fold change /veh TMEM53 (11763286_at) / RFU MAGEB2 (11727129_at) / Fold change /veh MAGEB2 (11727129_at) / RFU TMEM200A (11744735_a_at) / Fold change /veh TMEM200A (11744735_a_at) / RFU CCDC152 (11751479_a_at) / Fold change /veh CCDC152 (11751479_a_at) / RFU FAM211A (11726209_a_at) / Fold change /veh FAM211A (11726209_a_at) / RFU RGS16 (11746705_a_at) / Fold change /veh RGS16 (11746705_a_at) / RFU VCAN (11755009_s_at) / Fold change /veh VCAN (11755009_s_at) / RFU RHOB (11743442_s_at) / Fold change /veh RHOB (11743442_s_at) / RFU RGS16 (11720943_a_at) / Fold change /veh RGS16 (11720943_a_at) / RFU RGS16 (11720944_at) / Fold change /veh RGS16 (11720944_at) / RFU, VPS4B / Fold change vs veh, VPS4B / RFU, CREB1 / Fold change vs veh, CREB1 / RFU, DNAJC13 / Fold change vs veh, DNAJC13 / RFU, GNAQ / Fold change vs veh, GNAQ / RFU, CDK5R1 / Fold change vs veh, CDK5R1 / RFU, ZRANB3 / Fold change vs veh, ZRANB3 / RFU, CUL4A / Fold change vs veh, CUL4A / RFU, CCNY / Fold change vs veh, CCNY / RFU, UFL1 / Fold change vs veh, UFL1 / RFU, COG3 / Fold change vs veh, COG3 / RFU, DIAPH2 / Fold change vs veh, DIAPH2 / RFU, SKA2 / Fold change vs veh, SKA2 / RFU, AFF3 / Fold change vs veh, AFF3 / RFU, LMF1 / Fold change vs veh, LMF1 / RFU, IPO11 / Fold change vs veh, IPO11 / RFU, DFFB / Fold change vs veh, DFFB / RFU, FOXP1 / Fold change vs veh, FOXP1 / RFU, CARD8 / Fold change vs veh, CARD8 / RFU, STRN3 / Fold change vs veh, STRN3 / RFU, ADK / Fold change vs veh, ADK / RFU, RASSF2 / Fold change vs veh, RASSF2 / RFU, WIPF1 / Fold change vs veh, WIPF1 / RFU, LARP1B / Fold change vs veh, LARP1B / RFU, RASA1 / Fold change vs veh, RASA1 / RFU, RB1 / Fold change vs veh, RB1 / RFU, PPFIA1 / Fold change vs veh, PPFIA1 / RFU, MAT2A / Fold change vs veh, MAT2A / RFU, CCT5 / Fold change vs veh, CCT5 / RFU, WDR92 / Fold change vs veh, WDR92 / RFU, CUX1 / Fold change vs veh, CUX1 / RFU, TTC7A / Fold change vs veh, TTC7A / RFU, TMEM135 / Fold change vs veh, TMEM135 / RFU, DEPTOR / Fold change vs veh, DEPTOR / RFU, CPM / Fold change vs veh, CPM / RFU, DNAJB6 / Fold change vs veh, DNAJB6 / RFU, CACNA2D3 / Fold change vs veh, CACNA2D3 / RFU, DTX4 / Fold change vs veh, DTX4 / RFU, TFCP2 / Fold change vs veh, TFCP2 / RFU, GMCL1 /// GMCL1P1 / Fold change vs veh, GMCL1 /// GMCL1P1 / RFU, AEBP2 / Fold change vs veh, AEBP2 / RFU, SNHG1 /// SNORD22 /// SNORD25 /// SNORD26 /// SNORD27 /// SNORD28 /// SNORD29 /// SNORD31 / Fold change vs veh, SNHG1 /// SNORD22 /// SNORD25 /// SNORD26 /// SNORD27 /// SNORD28 /// SNORD29 /// SNORD31 / Fold change (Aza/veh), C12orf56 (ProbeSet 11735607_a_at) / Fold change (ACY-1035/veh), C12orf56 (ProbeSet 11735607_a_at) / Fold change (Aza/veh), FGFR1OP (ProbeSet 11751329_s_at) / Fold change (ACY-1035/veh), FGFR1OP (ProbeSet 11751329_s_at) / Fold change (Aza/veh), VPS36 (ProbeSet 11739960_a_at) / Fold change (ACY-1035/veh), VPS36 (ProbeSet 11739960_a_at) / RFU SYPL1 (11715823_x_at) / Fold change /veh SYPL1 (11715823_x_at) / RFU IGFBP7 (11715501_s_at) / Fold change /veh IGFBP7 (11715501_s_at) / RFU REEP3 (11722064_at) / Fold change /veh REEP3 (11722064_at) / RFU IGLL1 (11728026_x_at) / Fold change /veh IGLL1 (11728026_x_at): dose or concentration left out as unconfirmed",
  "settings": "MV-4-11 cells, 48 hours",
  "data": [
    {"compound": "Nc1ccc(-c2cccs2)cc1NC(=O)c1ccc2c(c1)cc(C1CC1)n2CCN1CCOCC1", "note": "[ACY-1035]", "values": [
      {"measurement": "RFU TMCC2 (11721928_a_at)", "value": 13.59, "unit": "RFU"}
    ]}
  ]
}
